Measured values taken from article PMC3532596, “Cell-based optimization of novel benzamides as potential antimalarial leads” (Bioorganic & Medicinal Chemistry Letters, 2009).
Values after ≈ are worked out from the molar mass of the structure shown.

Columns and labels:
P. falciparum 3D7 strain = assay: cell-based P. falciparum proliferation assay, 3D7 strain; settings: Plasmodium falciparum; chloroquine sensitive 3D7 strain; means of two experiments
Text: (§1) Currently there is a need for novel chemical scaffolds with different mechanisms of action, since most of the current approved antimalarial drugs belong to the aminoquinoline family. In order to find new chemical scaffolds, we initiated a compound screen using our in-house kinase inhibitor collection and subjected them to a cell-based of Plasmodium falciparum proliferation assay[5,6] We envisioned that the hits arising from this screen can be rapidly optimized by leveraging our past experiences with these compounds series in alternative target-classes/indications. Furthermore, we thought that it would be prudent to remove the human kinase activity early on during the compound optimization phase to negate the possibility of toxicity arising from host-related off-target activities (Scheme 1).

P. falciparum W2 strain = assay: cell-based P. falciparum proliferation assay, W2 strain; design: species or system Plasmodium falciparum; settings: for EC50: Plasmodium falciparum, W2, read-out: P. falciparum W2 strain EC50
Text: as §1
One important aspect of antimalarial drug discovery is to identify agents that are active against the drug-resistant parasites. […] While most of these resistance phenotypes are due to point mutations in the drug target, the W2 strain also contains an amplification of the P. falciparum multidrug resistance transporter.[10]

[1] = snapshot PK in mice, single oral dose; format: in vivo; settings: mice balb/c, 20 mg/kg orally, PEG300/D5W 3:1 solution, free base; for AUC(0-t) / Cmax at 5 h / Tmax at 5 h: mouse, in vivo, po
Protocol: Mice were dosed a single dose of 20 mg/kg orally and their exposure levels were monitored over a period of 5 h and results are summarized in Table 6.[11]
[11] Snapshot PK is developed and used by GNF pharmacology group as a rapid pharmacokinetic screening approach. The pharmacokinetic parameters of the compounds are studied in a single mode of administration (generally PO arm) over a period of 5 h. The study is carried out on two animals and the samples are pooled together at each time point. This high throughput approach offers exposure levels with reasonable confidence without committing to extensive resources. For details, see: Liu, B.; Chang, J.; Gordon, W. P.; Isbell, J.; Zhou, Yi.; Tuntland, T. Drug Discovery Today2008, 13, 360–367.

[2] = system: P. falciparum strain 3BAG; assay: P. falciparum proliferation assay, 3BAG strain; format: cell-based; settings: Plasmodium falciparum
Text: as §1
(§2) Compound 32 was profiled in an extended panel of 15 drug resistant strains (Table 5) and against a 6-cell line toxicity panel.

P. falciparum strain 7G8 = assay: P. falciparum proliferation assay, 7G8 strain; format: cell-based; settings: Plasmodium falciparum
Text: as §1, §2

[3] = system: P. falciparum strain C188; assay: P. falciparum proliferation assay, C188 strain; format: cell-based; settings: Plasmodium falciparum
Text: as §1, §2

P. falciparum strain D10 = assay: P. falciparum proliferation assay, D10 strain; format: cell-based; settings: Plasmodium falciparum
Text: as §1, §2

P. falciparum strain D6 = assay: P. falciparum proliferation assay, D6 strain; format: cell-based; settings: Plasmodium falciparum
Text: as §1, §2

P. falciparum strain Dd2 = assay: P. falciparum proliferation assay, Dd2 strain; format: cell-based; settings: Plasmodium falciparum
Text: as §1, §2

[4] = system: P. falciparum strain Camp R; assay: P. falciparum proliferation assay, Camp R strain; format: cell-based; settings: Plasmodium falciparum
Text: as §1, §2

P. falciparum strain FCB = assay: P. falciparum proliferation assay, FCB strain; format: cell-based; settings: Plasmodium falciparum
Text: as §1, §2

[5] = system: P. falciparum strain FCR3; assay: P. falciparum proliferation assay, FCR3 strain; format: cell-based; settings: Plasmodium falciparum
Text: as §1, §2

P. falciparum strain HB3 = assay: P. falciparum proliferation assay, HB3 strain; format: cell-based; settings: Plasmodium falciparum
Text: as §1, §2

P. falciparum strain K1 = assay: P. falciparum proliferation assay, K1 strain; format: cell-based; settings: Plasmodium falciparum
Text: as §1, §2

[6] = system: P. falciparum strain NF54; assay: P. falciparum proliferation assay, NF54 strain; format: cell-based; settings: Plasmodium falciparum
Text: as §1, §2

[7] = system: P. falciparum strain TM91C235; assay: P. falciparum proliferation assay, TM91C235 strain; format: cell-based; settings: Plasmodium falciparum
Text: as §1, §2

15 P. falciparum strains = assay: extended panel of 15 drug resistant strains; format: cell-based, Plasmodium falciparum; settings: 15 strains, potencies relative to each other
Text: as §2

293T = format: cell-based; settings: human
Text: as §2

Ba/F3 = format: cell-based; settings: mouse
Text: as §2

CHO = format: cell-based; settings: Chinese hamster
Text: as §2

HEp2 = format: cell-based; settings: human
Text: as §2

HeLa = format: cell-based; settings: human
Text: as §2

Huh7 = format: cell-based; settings: human
Text: as §2

[8] = 6-cell line toxicity panel, selectivity index; format: cell-based; settings: cytotoxicity TC50 vs antiplasmodial potency; read-out: selectivity index (SI)
Text: as §2

[9] = HT-thermodynamic solubility; format: physicochemical; settings: pH 6.8; pH6.8, free base; preliminary
Text: (§3) We also performed preliminary solubility and metabolic stability measurements on compound 32.

[10] = metabolic stability in mouse microsomes; format: in vitro ADME; settings: preliminary
Text: as §3

## CCCNC(=O)c1cc(N2CCC(N3CCCC3)CC2)cc(C(F)(F)F)c1 [Compound 4]
P. falciparum 3D7 strain
  EC50: 6480 nM

## O=C(Nc1ccncn1)c1cc(N2CCC(N3CCCC3)CC2)cc(C(F)(F)F)c1 [Compound 5]
P. falciparum 3D7 strain
  EC50: 2160 nM

## O=C(Nc1ccccc1Cl)c1cc(N2CCC(N3CCCC3)CC2)cc(C(F)(F)F)c1 [Compound 6]
P. falciparum 3D7 strain
  EC50: 1720 nM

## O=C(Nc1ccc(Cl)cc1)c1cc(N2CCC(N3CCCC3)CC2)cc(C(F)(F)F)c1 [Compound 7]
P. falciparum 3D7 strain
  EC50: 114 nM

## O=C(Nc1cccc(Cl)c1)c1cc(N2CCC(N3CCCC3)CC2)cc(C(F)(F)F)c1 [Compound 8]
P. falciparum 3D7 strain
  EC50: 134 nM
P. falciparum W2 strain
  EC50: 888 nM
P. falciparum W2 strain; W2 vs 3D7
  shift in potency between 3D7 and W2: ~6 fold
[1]
  AUC(0–5h)/dose: 5.31 (min ug/mL)/(mg/kg)
  AUC(0-t): 3.92 µM·h
  Cmax at 5 h: 1360 nM
  Tmax at 5 h: 1 h

## N#Cc1cccc(NC(=O)c2cc(N3CCC(N4CCCC4)CC3)cc(C(F)(F)F)c2)c1 [Compound 9]
P. falciparum 3D7 strain
  EC50: 146 nM

## O=C(Nc1cccc(C(F)(F)F)c1)c1cc(N2CCC(N3CCCC3)CC2)cc(C(F)(F)F)c1 [Compound 10]
P. falciparum 3D7 strain
  EC50: 174 nM

## O=C(Nc1ccc(Cl)c(Cl)c1)c1cc(N2CCC(N3CCCC3)CC2)cc(C(F)(F)F)c1 [Compound 11]
P. falciparum 3D7 strain
  EC50: 54 nM

## O=C(Nc1ccc(Br)c(Cl)c1)c1cc(N2CCC(N3CCCC3)CC2)cc(C(F)(F)F)c1 [Compound 12]
P. falciparum 3D7 strain
  EC50: 98 nM

## O=C(Nc1cc(Cl)cc(Cl)c1)c1cc(N2CCC(N3CCCC3)CC2)cc(C(F)(F)F)c1 [Compound 13]
P. falciparum 3D7 strain
  EC50: 48 nM
[1]
  AUC(0–5h)/dose: 7.01 (min ug/mL)/(mg/kg)
  AUC(0-t): 4.81 µM·h
  Cmax at 5 h: 1640 nM
  Tmax at 5 h: 5 h

## O=C(Nc1cc(N2CCC(N3CCCC3)CC2)cc(C(F)(F)F)c1)c1cccc(C(F)(F)F)c1 [Compound 14]
P. falciparum 3D7 strain
  EC50: 201 nM
[1]
  AUC(0–5h)/dose: 6.94 (min ug/mL)/(mg/kg)
  AUC(0-t): 4.77 µM·h
  Cmax at 5 h: 1170 nM
  Tmax at 5 h: 3 h

## N#Cc1cccc(C(=O)Nc2cc(N3CCC(N4CCCC4)CC3)cc(C(F)(F)F)c2)c1 [Compound 15]
P. falciparum 3D7 strain
  EC50: 402 nM

## O=S(=O)(Nc1cc(N2CCC(N3CCCC3)CC2)cc(C(F)(F)F)c1)c1cccc(C(F)(F)F)c1 [Compound 16]
P. falciparum 3D7 strain
  EC50: 8250 nM

## CN(C(=O)c1cc(N2CCC(N3CCCC3)CC2)cc(C(F)(F)F)c1)c1cccc(Cl)c1 [Compound 17]
P. falciparum 3D7 strain
  EC50: 4680 nM

## O=C(Nc1cccc(C(F)(F)F)c1)Nc1cc(N2CCC(N3CCCC3)CC2)cc(C(F)(F)F)c1 [Compound 18]
P. falciparum 3D7 strain
  EC50: 452 nM

## O=C(Nc1cccc(Cl)c1)Nc1cc(N2CCC(N3CCCC3)CC2)cc(C(F)(F)F)c1 [Compound 19]
P. falciparum 3D7 strain
  EC50: 328 nM

## FC(F)(F)c1cccc(CNc2cc(N3CCC(N4CCCC4)CC3)cc(C(F)(F)F)c2)c1 [Compound 20]
P. falciparum 3D7 strain
  EC50: 1980 nM

## FC(F)(F)c1cccc(Nc2cc(N3CCC(N4CCCC4)CC3)cc(C(F)(F)F)c2)c1 [Compound 21]
P. falciparum 3D7 strain
  EC50: 638 nM

## O=C(NCc1cccc(C(F)(F)F)c1)c1cc(N2CCC(N3CCCC3)CC2)cc(C(F)(F)F)c1 [Compound 22]
P. falciparum 3D7 strain
  EC50: 734 nM

## O=C(NC1(c2cccc(C(F)(F)F)c2)CC1)c1cc(N2CCC(N3CCCC3)CC2)cc(C(F)(F)F)c1 [Compound 23]
P. falciparum 3D7 strain
  EC50: 423 nM

## O=C(Nc1cccc(Cl)c1)c1cc(F)cc(N2CCC(N3CCCC3)CC2)c1 [Compound 24]
P. falciparum 3D7 strain
  EC50: 766 nM

## O=C(Nc1cccc(Cl)c1)c1cccc(N2CCC(N3CCCC3)CC2)c1 [Compound 25]
P. falciparum 3D7 strain
  EC50: 5880 nM

## O=C(Nc1cccc(Cl)c1)c1ccnc(N2CCC(N3CCCC3)CC2)c1 [Compound 26]
P. falciparum 3D7 strain
  EC50: 674 nM

## O=C(Nc1cccc(Cl)c1)c1cc(C(F)(F)F)nc(N2CCC(N3CCCC3)CC2)n1 [Compound 27]
P. falciparum 3D7 strain
  EC50: 1670 nM

## Cc1cc(C(=O)Nc2cccc(Cl)c2)nc(N2CCC(N3CCCC3)CC2)n1 [Compound 28]
P. falciparum 3D7 strain
  EC50: 2980 nM

## CC(C)(C)c1cc(C(=O)Nc2cccc(Cl)c2)nc(N2CCC(N3CCCC3)CC2)n1 [Compound 29]
P. falciparum 3D7 strain
  EC50: 2080 nM

## O=C(Nc1cccc(Cl)c1)c1cc(N2CCC(N3CCCCC3)CC2)cc(C(F)(F)F)c1 [Compound 30]
P. falciparum 3D7 strain
  EC50: 82 nM
P. falciparum W2 strain
  EC50: 296 nM
[1]
  AUC(0–5h)/dose: 6.10 (min ug/mL)/(mg/kg)
  AUC(0-t): 4.37 µM·h
  Cmax at 5 h: 1370 nM
  Tmax at 5 h: 1 h

## O=C(Nc1cccc(C(F)(F)F)c1)c1cc(N2CCC(N3CCCCC3)CC2)cc(C(F)(F)F)c1 [Compound 31]
P. falciparum 3D7 strain
  EC50: 149 nM
P. falciparum W2 strain
  EC50: 299 nM

## CC1CCN(C2CCN(c3cc(C(=O)Nc4cccc(Cl)c4)cc(C(F)(F)F)c3)CC2)CC1 [Compound 32]
P. falciparum 3D7 strain
  EC50: 140 nM
P. falciparum W2 strain
  EC50: 323 nM
[2]
  EC50: 268 nM
P. falciparum strain 7G8
  EC50: 309 nM
[3]
  EC50: 83 nM
P. falciparum strain D10
  EC50: 94 nM
P. falciparum strain D6
  EC50: 81 nM
P. falciparum strain Dd2
  EC50: 141 nM
[4]
  EC50: 138 nM
P. falciparum strain FCB
  EC50: 306 nM
[5]
  EC50: 218 nM
P. falciparum strain HB3
  EC50: 146 nM
P. falciparum strain K1
  EC50: 150 nM
[6]
  EC50: 104 nM
[7]
  EC50: 120 nM
15 P. falciparum strains
  spread of potencies across the strain panel: ≤ 3 fold
293T
  cytotoxicity TC50: greater than 8 μM
Ba/F3
  cytotoxicity TC50: greater than 8 μM
CHO
  cytotoxicity TC50: greater than 8 μM
HEp2
  cytotoxicity TC50: greater than 8 μM
HeLa
  cytotoxicity TC50: greater than 8 μM
Huh7
  cytotoxicity TC50: greater than 8 μM
[8]
  selectivity ratio: > 20
[1]
  AUC(0–5h)/dose: 11.42 (min ug/mL)/(mg/kg)
  AUC(0-t): 7.93 µM·h
  Cmax at 5 h: 2280 nM
  Tmax at 5 h: 5 h
[9]
  solubility thermodynamic: 26 µg/mL (≈ 54.2 µM)
[10]
  extraction ratio: 0.383 ± 0.04
  microsomal CLint: 21.4 µL/min/mg

## O=C(Nc1cccc(C(F)(F)F)c1)c1cc(N2CCC(N3CCCCC3=O)CC2)cc(C(F)(F)F)c1 [Compound 33]
P. falciparum 3D7 strain
  EC50: 1490 nM
P. falciparum W2 strain
  EC50: 1410 nM

## CC1CCCN(C2CCN(c3cc(C(=O)Nc4cccc(C(F)(F)F)c4)cc(C(F)(F)F)c3)CC2)C1 (stereo not shown) [Compound 34]
P. falciparum 3D7 strain
  EC50: 58 nM
P. falciparum W2 strain
  EC50: 211 nM

## O=C(Nc1cccc(C(F)(F)F)c1)c1cc(N2CCc3ccccc3C2)cc(C(F)(F)F)c1 [Compound 35]
P. falciparum 3D7 strain
  EC50: 175 nM
P. falciparum W2 strain
  EC50: 635 nM
[1]
  AUC(0–5h)/dose: 2.33 (min ug/mL)/(mg/kg)
  AUC(0-t): 1.67 µM·h
  Cmax at 5 h: 672 nM
  Tmax at 5 h: 0.5 h
